Results: ChEMBL document CHEMBL1201862, “PubChem BioAssay data set” (2004)
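Tested at 5 concentrations; 48 h exposure; 96-well plates; endpoints linearly interpolated, else capped at highest concentration. GI50: concentration for 50% inhibition of growth.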 The source made the active and inactive calls. Cut-off read from the data, not from the text of the source: active = GI50 up to about 1.1 µM and inactive = higher.

Experiments:
Assay in all cases: growth of human tumour cells (NCI), 48 h
TK-10 = system: TK-10
HOP-62 = system: HOP-62
EKVX = system: EKVX
U-251 = system: U-251
NCI-H522 = system: NCI-H522
SN12C = system: SN12C
SK-MEL-28 = system: SK-MEL-28
CCRF-CEM = system: CCRF-CEM
SK-MEL-2 = system: SK-MEL-2
HL-60 = system: HL-60
CAKI-1 = system: CAKI-1
UO-31 = system: UO-31
K562 = system: K562
MDA-MB-231 = system: MDA-MB-231
IGROV-1 = system: IGROV-1
HOP-92 = system: HOP-92
SF-295 = system: SF-295
OVCAR-5 = system: OVCAR-5
NCI-H226 = system: NCI-H226

Measured: GI50

Cc1nc2nc3c(ncn3COCCO)c(O)n2c1C(c1ccccc1)(c1ccccc1)c1ccccc1
inactive: TK-10 16.6 µM | HOP-62 18.6 µM | EKVX 19.4 µM | U-251 14.1 µM | NCI-H522 12.6 µM | SN12C 16.5 µM | SK-MEL-28 20 µM | CCRF-CEM 13.2 µM | SK-MEL-2 14.5 µM | HL-60 14.1 µM | CAKI-1 60 µM | UO-31 30.3 µM | K562 9.25 µM | MDA-MB-231 14.5 µM | IGROV-1 14 µM | HOP-92 16.7 µM | SF-295 17.3 µM | OVCAR-5 18.7 µM

C=CCCCN1C(=O)C2C3c4ccccc4C(C=O)(c4ccccc43)C2C1=O (stereo unspecified)
inactive: TK-10 16.1 µM | HOP-62 14.5 µM | EKVX 6.03 µM | U-251 11.2 µM | NCI-H522 8.57 µM | SN12C 7.93 µM | SK-MEL-28 15.9 µM | CCRF-CEM 3.58 µM | SK-MEL-2 24 µM | HL-60 9.89 µM | CAKI-1 16 µM | UO-31 10.7 µM | K562 3.62 µM | MDA-MB-231 9.42 µM | IGROV-1 13.6 µM | HOP-92 11.3 µM | SF-295 9.91 µM | OVCAR-5 18.9 µM

COc1ccc(-c2nc(-c3cnccn3)n(C/C=C/c3ccccc3)n2)cc1
inactive: HOP-62 21.5 µM | U-251 46.7 µM | NCI-H522 32.8 µM | SN12C > 100 µM | SK-MEL-28 35.2 µM | CCRF-CEM > 100 µM | HL-60 > 100 µM | UO-31 49.2 µM | K562 > 100 µM | MDA-MB-231 71.1 µM | IGROV-1 48.1 µM | HOP-92 11.5 µM | SF-295 32.1 µM | OVCAR-5 > 100 µM

CC(=O)O[C@H]1CC[C@@]2(C)C(=CC[C@@H]3[C@@H]2CC[C@]2(C)C(=O)/C(=C\c4ccccc4)C[C@@H]32)C1
inactive: TK-10 > 100 µM | HOP-62 94 µM | EKVX > 100 µM | U-251 > 100 µM | NCI-H522 51.8 µM | SN12C > 100 µM | SK-MEL-28 > 100 µM | CCRF-CEM > 100 µM | SK-MEL-2 > 100 µM | CAKI-1 > 100 µM | UO-31 > 100 µM | K562 54.7 µM | MDA-MB-231 > 100 µM | IGROV-1 > 100 µM | HOP-92 > 100 µM | SF-295 > 100 µM | NCI-H226 > 100 µM | OVCAR-5 > 100 µM

NCc1ccc(O)c(O)c1
inactive: HOP-62 > 100 µM | EKVX > 100 µM | U-251 > 100 µM | SN12C > 100 µM | SK-MEL-28 > 100 µM | CCRF-CEM 53 µM | SK-MEL-2 > 100 µM | HL-60 12.5 µM | CAKI-1 > 100 µM | UO-31 > 100 µM | K562 > 100 µM | MDA-MB-231 > 100 µM | IGROV-1 60.1 µM | HOP-92 > 100 µM | SF-295 > 100 µM | NCI-H226 > 100 µM | OVCAR-5 > 100 µM

COCC[N+](CCNC(=O)c1cccc2c(N)c3cccc(C)c3nc12)(CCOC)Cc1ccc([N+](=O)[O-])cc1
inactive: TK-10 67.3 µM | HOP-62 31.8 µM | EKVX 24.2 µM | U-251 19.8 µM | NCI-H522 5.37 µM | SN12C 32.9 µM | SK-MEL-28 13.8 µM | CCRF-CEM 6.15 µM | SK-MEL-2 28.8 µM | HL-60 12.9 µM | CAKI-1 > 100 µM | UO-31 63 µM | MDA-MB-231 28.1 µM | IGROV-1 11.1 µM | HOP-92 29 µM | SF-295 28.4 µM | OVCAR-5 30.9 µM

Cc1sc2nc3n(c(=O)c2c1C)N=CN(c1ccc(Cl)cc1)C3
inactive: TK-10 > 100 µM | HOP-62 99.3 µM | EKVX > 100 µM | U-251 > 100 µM | NCI-H522 58.7 µM | SN12C > 100 µM | SK-MEL-28 > 100 µM | CCRF-CEM > 100 µM | SK-MEL-2 > 100 µM | CAKI-1 > 100 µM | UO-31 > 100 µM | K562 > 100 µM | MDA-MB-231 > 100 µM | IGROV-1 > 100 µM | HOP-92 > 100 µM | SF-295 > 100 µM | NCI-H226 > 100 µM | OVCAR-5 > 100 µM

NCCCCc1cc(O)c2c(c1O)C(=O)c1ccccc1C2=O
inactive: TK-10 15.4 µM | HOP-62 8.39 µM | EKVX 17.1 µM | U-251 9.75 µM | NCI-H522 10 µM | SN12C 10.6 µM | SK-MEL-28 17.5 µM | CCRF-CEM 3.77 µM | SK-MEL-2 17.4 µM | CAKI-1 12.6 µM | UO-31 6.73 µM | K562 3.1 µM | MDA-MB-231 9.1 µM | IGROV-1 8 µM | HOP-92 14.4 µM | SF-295 14.1 µM | NCI-H226 4.56 µM | OVCAR-5 13.3 µM

CC1(C)[N+]([O-])=[N+]([O-])C1(Br)c1ccccc1 (stereo unspecified)
inactive: TK-10 > 100 µM | HOP-62 > 100 µM | EKVX > 100 µM | U-251 > 100 µM | SN12C > 100 µM | SK-MEL-28 > 100 µM | CCRF-CEM 39.9 µM | SK-MEL-2 > 100 µM | HL-60 33 µM | CAKI-1 > 100 µM | UO-31 28.8 µM | K562 85.7 µM | MDA-MB-231 59.6 µM | IGROV-1 > 100 µM | HOP-92 > 100 µM | SF-295 49.2 µM | NCI-H226 > 100 µM | OVCAR-5 > 100 µM

O=C1Nc2c(Cl)cc(Cl)cc2/C1=N/N=C/c1ccco1
inactive: TK-10 48.5 µM | HOP-62 34.7 µM | EKVX 7.6 µM | U-251 27.7 µM | SN12C 26.6 µM | SK-MEL-28 33 µM | CCRF-CEM 29 µM | SK-MEL-2 24.4 µM | HL-60 29.7 µM | CAKI-1 24.3 µM | UO-31 20.5 µM | K562 31.4 µM | MDA-MB-231 20.3 µM | IGROV-1 27.5 µM | HOP-92 27.4 µM | SF-295 31.7 µM | NCI-H226 23 µM | OVCAR-5 61 µM

Cc1ccc(NC(=O)S(N)(c2ccc(C)cc2)[N+](=O)[O-])cc1 (stereo unspecified)
inactive: TK-10 > 100 µM | HOP-62 > 100 µM | U-251 > 100 µM | SN12C > 100 µM | SK-MEL-28 > 100 µM | CCRF-CEM > 100 µM | SK-MEL-2 > 100 µM | HL-60 10 µM | CAKI-1 > 100 µM | UO-31 75 µM | K562 8.87 µM | MDA-MB-231 > 100 µM | IGROV-1 > 100 µM | HOP-92 > 100 µM | SF-295 > 100 µM | NCI-H226 > 100 µM | OVCAR-5 > 100 µM
